In US9150829B2, “Culture of pluripotent and multipotent cells on microcarriers” (AGENCY FOR SCIENCE, TECHNOLOY AND RESEARCH, priority 2009, dated 2015):
≈ marks a conversion by molar mass, not a printed value.

Assays:
[1] = tested on: hESC (HES-2); experiment: Pluripotent marker expression in HES-2 on matrix free microcarriers with ROCK inhibitors; format: cell-based, human; conditions: for expression of pluripotent marker Tra-1-60 / expression of pluripotent marker Oct4: DE53
Description: (§1) Briefly, expression levels of extracellular antigens TRA-1-60 and intracellular transcription factor, Oct-4 in hESC populations are assessed by immunofluorescence using flow cytometry. Cells are harvested as single cell suspensions using trypsin or trypLE express, filtered through a 40 μm sieve (BD) fixed, permeabilised (Caltag Laboratories) and incubated with primary antibodies to TRA-1-60 (1:50 dilution, Chemicon, MAB4360/4381) and to Oct-4 (1:20 dilution, Santa Cruz).
(§2) Cells are then washed with 1% BSA/PBS, and incubated in the dark with a 1:500 dilution of goat α-mouse antibody FITC-conjugated (DAKO). After incubation, the cells are again washed and resuspended in 1% BSA/PBS for analysis on a FACScan (Becton Dickinson FACS Calibur). All incubations are performed at room temperature for 15 min.
A range of ROCK inhibitors (at 10 μM) were tested for their ability to allow hESC (HES-2) cell culture on matrix free cellulose DE53 microcarriers. These included fasudil, hydroxyfasudil and […] and were compared to a control (DE53 microcarriers coated in Matrigel).

[2] = biological target: Rho kinase (ROCK); conditions: cited from earlier work
[3] = biological target: T1, PKCiota-Par6 interaction (Homo sapiens, UniProt P41743); conditions: read-out: IC50 (PKCiota-Par6 interaction inhibitor); cited from earlier work
T1 sequence (P41743 10-122 limits assumed): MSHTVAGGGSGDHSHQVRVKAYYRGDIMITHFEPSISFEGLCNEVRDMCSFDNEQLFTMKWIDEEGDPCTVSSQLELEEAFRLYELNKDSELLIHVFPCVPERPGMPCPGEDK

[4] = tested on: hESC; experiment: FACS of pluripotent markers in hESC on microcarriers; format: cell-based, human
Description: Characterisation was performed according to our recent paper by Oh et al., 2009 (Long term microcarrier suspension cultures of human embryonic stem cells, Stem Cell Research (2009)).
as §1, §2

[5] = tested on: hESC; experiment: hESC growth and passaging on uncoated microcarriers without Matrigel with ROCK inhibitor; format: cell-based, human
Description: Cells suspension obtained either from dispersed 2D colony culture or directly from liquid nitrogen storage (200×200 μm tissue obtained from 2D colony culture or as cell-microcarriers aggregates) are seeded at concentrations of 0.1-0.3×10^6/ml on microcarrier suspension (4 mg/ml). […] The media used are either MEF-CM or defined media. Medium is changed daily. The cultures are passaged weekly following either enzymatic treatment with collagenase or trypLE or following mechanical dissociating by repeated pipetting at a split ratio of 1:2 to 1:10. Replating of microcarrier cultures to 2D colony culture is done by placing confluent cell-microcarrier aggregates on Matrigel coated 6 cm tissue culture petridish with 8 mls of media, and culturing the cells for 7 days. Seeding of hESC on DE53, QA52, Tosoh, Cytodex 1 and Cytodex 3 microcarriers hESC were seeded on uncoated microcarriers and passaged weekly following the protocol of Example 3 and that of Oh et al., 2009 (Long term microcarrier suspension cultures of human embryonic stem cells, Stem Cell Research (2009)). All chemicals were purchased from Calbiochem. All inhibitors were diluted to their final working concentration in conditioned media prior to feeding hESC on microcarriers.

[6] = tested on: P14 kinase, PKC, MAP kinase or c-Src; conditions: concentration of 50 μM; cited from earlier work
[7] = biological target: phosphatidylinositol 3 (PI3) kinase; conditions: cited from earlier work
[8] = biological target: PKC; conditions: read-out: Ki PKC; cited from earlier work
[9] = biological target: MLCK (Homo sapiens, UniProt Q15746); conditions: cited from earlier work
[10] = tested on: hESC (HES-2); experiment: Pluripotent marker expression in HES-2 on matrix free microcarriers with ROCK inhibitors; format: cell-based, human; conditions: Cytodex 1, 10 μM, passage 5
[11] = tested on: iPS IMR90 cells; experiment: Pluripotent marker expression in human iPS cells on DE53 microcarriers; format: cell-based; conditions: uncoated DE53, mTeSR1, 10 μM daily, 12 passages
Description: as §1, §2
(§3) iPS IMR90 cells (1.6×10^5 cells/ml) were cultured in wells of a 6-well plate with 20 mg of uncoated DE53, 5 ml of serum free media mTeSR1, 4 μl of ROCK inhibitor (Y27632) [10 μM]. 80% media refreshment and addition of inhibitor was carried out daily.

[12] = tested on: iPS IMR90 cells; experiment: Human iPS cell growth on uncoated DE53 microcarriers with ROCK inhibitor; format: cell-based; conditions: uncoated DE53, mTeSR1, 10 μM daily, 12 passages
Description: as §3

[13] = 10 μM, daily continuous addition, after 9 weeks
[14] = single dose addition (10 μM), after 6 weeks (P6)

Chain of MLCK (Q15746 whole entry): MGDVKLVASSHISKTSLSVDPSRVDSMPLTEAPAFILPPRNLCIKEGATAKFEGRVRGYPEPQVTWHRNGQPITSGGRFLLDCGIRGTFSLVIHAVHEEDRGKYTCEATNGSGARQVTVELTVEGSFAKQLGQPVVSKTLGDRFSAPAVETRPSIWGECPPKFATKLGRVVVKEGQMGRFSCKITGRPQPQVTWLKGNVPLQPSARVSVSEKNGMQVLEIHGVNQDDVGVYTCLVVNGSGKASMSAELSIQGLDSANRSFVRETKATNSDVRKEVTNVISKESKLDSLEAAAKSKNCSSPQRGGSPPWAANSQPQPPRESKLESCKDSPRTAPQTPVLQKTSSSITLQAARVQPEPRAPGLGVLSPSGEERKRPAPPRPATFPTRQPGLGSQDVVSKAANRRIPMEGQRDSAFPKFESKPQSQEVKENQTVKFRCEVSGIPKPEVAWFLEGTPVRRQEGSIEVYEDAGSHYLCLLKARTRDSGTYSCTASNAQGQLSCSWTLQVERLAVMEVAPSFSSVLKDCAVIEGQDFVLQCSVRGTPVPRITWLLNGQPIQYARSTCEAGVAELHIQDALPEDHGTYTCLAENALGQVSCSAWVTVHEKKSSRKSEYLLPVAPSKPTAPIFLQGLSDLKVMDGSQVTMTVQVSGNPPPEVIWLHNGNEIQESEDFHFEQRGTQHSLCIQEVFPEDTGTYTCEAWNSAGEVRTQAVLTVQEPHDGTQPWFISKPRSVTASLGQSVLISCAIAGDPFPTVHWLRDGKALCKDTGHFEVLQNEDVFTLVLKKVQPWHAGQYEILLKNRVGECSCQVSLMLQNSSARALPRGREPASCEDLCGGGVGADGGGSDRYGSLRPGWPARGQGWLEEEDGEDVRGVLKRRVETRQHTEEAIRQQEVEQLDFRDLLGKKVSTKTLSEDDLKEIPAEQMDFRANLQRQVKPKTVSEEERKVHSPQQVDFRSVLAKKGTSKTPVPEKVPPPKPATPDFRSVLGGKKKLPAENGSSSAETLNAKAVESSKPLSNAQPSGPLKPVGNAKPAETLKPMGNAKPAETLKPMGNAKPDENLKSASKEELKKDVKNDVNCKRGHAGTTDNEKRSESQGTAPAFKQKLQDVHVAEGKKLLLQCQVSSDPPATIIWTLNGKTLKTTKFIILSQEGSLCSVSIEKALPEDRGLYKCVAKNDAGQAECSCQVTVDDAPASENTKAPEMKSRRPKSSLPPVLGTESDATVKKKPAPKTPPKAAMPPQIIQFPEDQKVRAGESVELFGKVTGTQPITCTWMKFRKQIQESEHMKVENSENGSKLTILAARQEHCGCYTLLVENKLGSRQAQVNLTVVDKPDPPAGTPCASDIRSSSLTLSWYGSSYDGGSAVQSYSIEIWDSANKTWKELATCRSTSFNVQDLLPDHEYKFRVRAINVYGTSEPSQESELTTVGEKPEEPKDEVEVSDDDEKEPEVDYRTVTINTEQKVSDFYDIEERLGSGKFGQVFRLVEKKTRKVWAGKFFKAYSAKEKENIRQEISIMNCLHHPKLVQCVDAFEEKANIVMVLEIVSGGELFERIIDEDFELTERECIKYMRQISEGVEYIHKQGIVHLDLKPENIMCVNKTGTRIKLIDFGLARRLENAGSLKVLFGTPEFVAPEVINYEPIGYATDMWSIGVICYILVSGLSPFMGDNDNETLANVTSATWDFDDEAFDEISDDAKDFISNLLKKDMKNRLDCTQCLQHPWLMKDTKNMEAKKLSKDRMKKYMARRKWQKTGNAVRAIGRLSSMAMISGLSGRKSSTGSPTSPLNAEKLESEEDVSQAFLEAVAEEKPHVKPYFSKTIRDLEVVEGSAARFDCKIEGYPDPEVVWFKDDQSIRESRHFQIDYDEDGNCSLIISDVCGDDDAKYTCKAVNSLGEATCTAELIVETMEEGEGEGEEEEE

Cl.O=S(=O)(c1cccc2c(O)nccc12)N1CCCNCC1 [HA-1100]
expression of pluripotent marker Tra-1-60 [1, 13]: about 80%
expression of pluripotent marker Oct4 [1, 14]: 60%
expression of pluripotent marker Tra-1-60 [1, 14]: ~50%

O=S(=O)(c1cccc2cnccc12)N1CCCNCC1 [HA-1077]
expression of pluripotent marker Tra-1-60 [1, 13]: about 80%
expression of pluripotent marker Oct4 [1, 14]: 60%
expression of pluripotent marker Tra-1-60 [1, 14]: about 80%

O=C(Nc1ccncc1)Nc1c(Cl)cc(Cl)cc1Cl [N-(4-Pyridyl)-N′-(2,4,6-trichlorophenyl) urea]
IC50 [2]: 0.2 µM

c1ccc2c(-c3ccncc3)c[nH]c2c1 [3-(4-Pyridyl)-1H-indole]
IC50 [2]: 25 µM

Aurothioglucose
expression of pluripotent marker Oct4 [1, 13]: ~50%
expression of pluripotent marker Tra-1-60 [1, 13]: ~60%
expression of pluripotent marker Oct4 [1, 14]: 60%
expression of pluripotent marker Tra-1-60 [1, 14]: ~70%
IC50 [3]: 1 µM
expression of pluripotent markers Oct4 and mAb 84 ([4]; cellulose microcarriers without Matrigel, passage 0 and 1, compared to Matrigel control): stable expression
expression of pluripotency markers Oct4 and mAb84 ([4]; uncoated DE53, through passage 4): continued strong expression
passage successfully reached ([5]; uncoated DE53): 4 passage

O=c1cc(N2CCOCC2)oc2c(-c3ccccc3)cccc12 [LY294002]
inhibition of other lipid and protein kinases [6]: did not inhibit
IC50 [7]: 1.4 µM
IC50 PI3 kinase activity [7]: 0.43 µg/mL (≈ 1.4 µM)
effect on PI3 kinase activity ([7]; concentration of 50 μM): specifically abolished PI3 kinase activity

Cc1cncc2cccc(S(=O)(=O)N3CCCNCC3C)c12 (stereo in doubt) [H-1152, (S)-(+)-2-Methyl-1-[(4-methyl-5-isoquinolinyl)sulfonyl]homopiperazine]
Ki [8]: 9.27 µM
Ki [9]: 10.1 µM
Ki [2]: 0.0016 µM

C[C@@H](N)[C@H]1CC[C@H](C(=O)Nc2ccncc2)CC1 [Y-27632, (R)-(+)-trans-N-(4-Pyridyl)-4-(1-aminoethyl)-cyclohexanecarboxamide.2HCl]
expression of Tra-1-60 (FACS) [10]: ~94%
pluripotent marker expression (Tra-1-60) versus Matrigel control cultures ([1]; Cytodex 1 and DE53 microcarriers, 10 μM): similar
expression of Tra-1-60 (FACS) ([1]; DE53, 10 μM, passage 5): ~92%
expression of pluripotent marker Oct4 [1, 14]: 60%
expression of pluripotent marker Tra-1-60 [1, 14]: about 80%
Oct4 and Tra-1-60 expression [11]: stable over 12 passages
expression of pluripotent markers Oct4 and mAb 84 ([4]; Cytodex 1, Cytodex 3, cellulose and Tosoh microcarriers without Matrigel, passage 5): robust expression
expression of pluripotent markers Oct4, mAb 84 and Tra-1-60 ([4]; DE53 without Matrigel, 9 weeks): still robust
expression of pluripotent markers Oct4 and mAb 84 ([4]; DE53 without Matrigel, over 3 weeks): stable expression
expression of pluripotent markers Oct4 and Tra-1-60 ([4]; Tosoh polylysine microcarriers without Matrigel, passage 4): strongly expressed
consecutive weeks of passaging hESC ([5]; cellulose DE53 microcarriers, no Matrigel, 10 μM): 9 weeks
cell numbers ([5]; cellulose and Tosoh microcarriers, no Matrigel, passage 5): 4 million/well
consecutive weeks of passaging hESC ([5]; cellulose, Tosoh, Cytodex 1 and Cytodex 3 microcarriers, no Matrigel): five
consecutive weeks of passaging hESC ([5]; spherical polylysine Tosoh 65 micron microcarriers, no Matrigel): six
cell density [12]: stable over 12 passages
